Experimental data taken from ChEMBL document CHEMBL5528031, “Synthesis and antitumor activity of cyclopentane-fused anthraquinone derivatives” (Eur J Med Chem, 2024).
≈ marks a conversion by molar mass, not a printed value. Calls of active or inactive are those of the source. The rule behind the calls is not given here.

How the values were obtained:
[1] = Drug localization in lysosome of human HCT-116 cells assessed as appearance of yellow color at 2 uM incubated for 24 hrs by LysoTracker Green staining based fluorescence microscopic analysis; assay type: ADME, subcellular; conditions: hct-116, 24 h
HL-60 = assay: Antiproliferative activity against human HL-60 cells assessed as inhibition of cell growth incubated for 72 hrs by MTT assay; assay type: functional, cell-based; conditions: HL-60, 72 h
Z-138 = assay: Antiproliferative activity against human Z138 cells assessed as inhibition of cell growth incubated for 72 hrs by MTT assay; assay type: functional, cell-based; conditions: Z-138, 72 h
[2] = Drug uptake in hFB-hTERT6 cells; assay type: ADME, cell-based; conditions: human
HCT-116 [3] = assay: Antiproliferative activity against human HCT-116 cells assessed as inhibition of cell growth incubated for 72 hrs by MTT assay; assay type: functional, cell-based; conditions: HCT-116, 72 h
Calf thymus DNA [4] = assay: Binding affinity to calf thymus DNA assessed as dissociation constant at 10 uM by fluorescence spectroscopy analysis; assay type: nucleic-acid assay, Bos taurus
HCT-116 [5] = assay: Induction of oxidative stress in human HCT-116 cells assessed as increase in ROS-positive cells at 10 uM incubated for 2 hrs by Abcam-ROS deep red staining based fluorescence microscopic analysis; assay type: functional, cell-based
Calf thymus DNA [6] = assay: Binding affinity to calf thymus DNA assessed as binding constant at 10 uM by fluorescence spectroscopy analysis; assay type: nucleic-acid assay; conditions: Bos taurus
[7] = Drug localization in nucleus of human HCT-116 cells assessed as appearance of magenta color at 2 uM incubated for 24 hrs by Hoechst 33342 staining based fluorescence microscopic analysis; assay type: ADME, subcellular; conditions: hct-116, 24 h
LN-229 = assay: Antiproliferative activity against human LN-229 cells assessed as inhibition of cell growth incubated for 72 hrs by MTT assay; assay type: functional, cell-based; conditions: LN-229, 72 h
HCT-116 [8] = assay: Induction of oxidative stress in human HCT-116 cells assessed as increase in ROS-positive cells at 10 uM incubated for 2 hrs by flow cytometry analysis; assay type: functional, cell-based
DNA [9] = assay: Binding affinity to pBR322 plasmid DNA (unknown origin) assessed as DNA intercalation by measuring reduction in electrophoretic shift at 5 to 20 uM incubated for 30 mins by EtBr staining based agarose gel electrophoresis; assay type: nucleic-acid assay; conditions: dose 5-20 µM
[10] = Antiproliferative activity against human DND41 cells assessed as inhibition of cell growth incubated for 72 hrs by MTT assay; assay type: functional, cell-based; conditions: DND41, 72 h
NCI-H1975 = assay: Antiproliferative activity against human NCI-H1975 cells assessed as inhibition of cell growth incubated for 72 hrs by MTT assay; assay type: functional, cell-based; conditions: NCI-H1975, 72 h
[11] = Antiproliferative activity against multidrug resistant human K562/4 cells expressing P-gp assessed as inhibition of cell growth incubated for 72 hrs by MTT assay; assay type: functional, cell-based; conditions: K562/4, 72 h
[12] = Octanol/water partition coefficient, logP of compound at pH 7.4 by HPLC analysis; assay type: physicochemical
[13] = Drug localization in mitochondria of human HCT-116 cells assessed as appearance of yellow color at 2 uM incubated for 24 hrs by MitoTracker deep red staining based fluorescence microscopic analysis; assay type: ADME; conditions: hct-116, 24 h
CAPAN-1 = assay: Antiproliferative activity against human CAPAN-1 cells assessed as inhibition of cell growth incubated for 72 hrs by MTT assay; assay type: functional, cell-based; conditions: CAPAN-1, 72 h
[14] = Drug uptake in human HCT-116 cells assessed as increase in intracellular accumulation at 2 uM measured after 24 hrs by Hoechst 33342 staining based fluorescence confocal microscopic analysis; assay type: ADME, cell-based; conditions: hct-116, 24 h
[15] = Drug uptake in human HCT-116 cells assessed as increase in intracellular accumulation at 2 uM measured after 24 hrs by flow cytometry analysis; assay type: ADME, cell-based; conditions: hct-116, 24 h
K562 = assay: Antiproliferative activity against human K562 cells assessed as inhibition of cell growth incubated for 72 hrs by MTT assay; assay type: functional, cell-based; conditions: K562, 72 h
[16] = Drug localization in mitochondria of human HCT-116 cells assessed as appearance of yellow color at 2 uM incubated for 9 hrs by MitoTracker deep red staining based fluorescence microscopic analysis; assay type: ADME; conditions: hct-116, 9 h
[17] = target: T1, DNA topoisomerase 1 (Homo sapiens) (UniProt P11387); assay: Inhibition of topoisomerase 1 (unknown origin) assessed as reduction in unwinding of supercoiled pBR322 plasmid DNA by measuring reduction in electrophoretic mobility at 5 to 20 uM incubated for 30 mins by EtBr staining based agarose gel electrophoresis; conditions: dose 5-20 µM
T1 sequence (whole entry): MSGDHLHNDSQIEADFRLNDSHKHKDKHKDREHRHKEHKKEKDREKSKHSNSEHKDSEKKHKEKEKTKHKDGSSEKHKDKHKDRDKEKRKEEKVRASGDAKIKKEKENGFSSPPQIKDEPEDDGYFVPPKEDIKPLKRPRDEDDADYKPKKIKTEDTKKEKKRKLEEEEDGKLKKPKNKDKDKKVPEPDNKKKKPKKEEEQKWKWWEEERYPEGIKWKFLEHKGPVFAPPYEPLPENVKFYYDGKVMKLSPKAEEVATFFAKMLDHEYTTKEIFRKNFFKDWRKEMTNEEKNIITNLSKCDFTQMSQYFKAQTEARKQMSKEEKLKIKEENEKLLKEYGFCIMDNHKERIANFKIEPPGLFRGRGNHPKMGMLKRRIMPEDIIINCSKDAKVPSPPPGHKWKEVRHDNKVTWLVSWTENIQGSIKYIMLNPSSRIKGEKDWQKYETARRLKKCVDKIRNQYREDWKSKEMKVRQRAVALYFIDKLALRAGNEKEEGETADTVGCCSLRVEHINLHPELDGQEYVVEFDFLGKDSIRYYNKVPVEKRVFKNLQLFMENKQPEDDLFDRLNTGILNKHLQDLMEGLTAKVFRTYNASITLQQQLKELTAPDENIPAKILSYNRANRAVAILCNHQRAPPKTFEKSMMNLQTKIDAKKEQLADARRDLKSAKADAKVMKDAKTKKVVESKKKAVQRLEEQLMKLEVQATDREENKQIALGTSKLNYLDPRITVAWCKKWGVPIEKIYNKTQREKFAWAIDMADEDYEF

[18] = Drug localization in lysosome of human HCT-116 cells assessed as appearance of yellow color at 2 uM incubated for 9 hrs by LysoTracker Green staining based fluorescence microscopic analysis; assay type: ADME, subcellular; conditions: hct-116, 9 h
[19] = Cytotoxicity against hFB-hTERT6 cells assessed as inhibition of cell growth incubated for 72 hrs by MTT assay; assay type: toxicity, cell-based; conditions: human
[20] = Solubility of compound in deionized water at pH 6; assay type: physicochemical
[21] = Drug uptake in human HCT-116 cells assessed as increase in intracellular accumulation at 2 uM measured after 5 mins by Hoechst 33342 staining based fluorescence confocal microscopic analysis; assay type: ADME, cell-based; conditions: hct-116, 5 min
DNA [22] = assay: Binding affinity to pBR322 plasmid DNA (unknown origin) assessed as DNA intercalation by measuring reduction in electrophoretic shift incubated for 30 mins by EtBr staining based agarose gel electrophoresis; assay type: nucleic-acid assay; conditions: dose 5-20 µM

COc1cccc2c1C(=O)c1c(O)c3c(c(O)c1C2=O)C[C@@](O)(C(=O)CO)C[C@@H]3O[C@H]1C[C@H](N)[C@H](O)[C@H](C)O1 [DOXORUBICIN]
Drug uptake [1]: Active | IC50 (HL-60): 0.22 µM | IC50 (Z-138): 1.59 µM | Drug uptake [2]: Active | IC50 (HCT-116 [3]): 0.3 µM | Kd (Calf thymus DNA [4]): 0.7 µM | Activity (HCT-116 [5]): inactive | Kb (Calf thymus DNA [6]): 1.4 10^6/M | Drug uptake [7]: Active | IC50 (LN-229): 1.82 µM | Activity (HCT-116 [8]): inactive | Activity (DNA [9]): Active | IC50 [10]: 0.76 µM | IC50 (NCI-H1975): 0.62 µM | IC50 [11]: 4.2 µM | logD [12]: 0.3 | Drug uptake [13]: Not Active | IC50 (CAPAN-1): 1.71 µM | Drug uptake [14]: Active | Drug uptake [15]: Active

N[C@H]1CCN(C(=O)C2Cc3c(O)c4c(c(O)c3C2)C(=O)c2ccccc2C4=O)C1
IC50 (HL-60): 2.1 µM | IC50 (Z-138): 2.5 µM | Drug uptake [2]: Active | IC50 (HCT-116 [3]): 1.9 µM | Kd (Calf thymus DNA [4]): 2.9 µM | Activity (HCT-116 [5]): Active | IC50 (K562): 1.9 µM | Kb (Calf thymus DNA [6]): 0.35 10^6/M | Drug uptake [16]: Not Active | inhibition [17]: Active | IC50 (LN-229): 0.7 µM | Activity (HCT-116 [8]): Active | Drug uptake [18]: Active | IC50 [10]: 2.4 µM | IC50 (NCI-H1975): 2.3 µM | IC50 [11]: 1.9 µM | logD [12]: 1.56 | IC50 at 72 h [19]: 4.2 µM | solubility [20]: 55 mg/mL (≈ 140 mM) | Drug uptake [21]: Active | Activity (DNA [22]): Dose-Dependent Effect | IC50 (CAPAN-1): 1 µM | Drug uptake [15]: Active
